Test results published in ChEMBL document CHEMBL1201862, “PubChem BioAssay data set” (2004).
The source made the active and inactive calls.

Key:
Albumin = Albumin (Bos taurus, UniProt P02769); assay: Counterscreen for inhibitors of T-cell receptor (TCR)-CD3 interaction: Fluorescence-based biochemical high throughput dose response assay to identify inhibitors of T-cell receptor (TCR)-CD3 interaction using a TAMRA-labeled BSA probe.; assay type: functional
[1] = target: T1, Alkaline phosphatase, tissue-nonspecific isozyme (Homo sapiens, UniProt P05186); assay: human TNAP enzyme inhibitors, SAR follow-up, biochemical, luminescent, dose response (AID 1056)
T1 sequence (P05186 whole entry): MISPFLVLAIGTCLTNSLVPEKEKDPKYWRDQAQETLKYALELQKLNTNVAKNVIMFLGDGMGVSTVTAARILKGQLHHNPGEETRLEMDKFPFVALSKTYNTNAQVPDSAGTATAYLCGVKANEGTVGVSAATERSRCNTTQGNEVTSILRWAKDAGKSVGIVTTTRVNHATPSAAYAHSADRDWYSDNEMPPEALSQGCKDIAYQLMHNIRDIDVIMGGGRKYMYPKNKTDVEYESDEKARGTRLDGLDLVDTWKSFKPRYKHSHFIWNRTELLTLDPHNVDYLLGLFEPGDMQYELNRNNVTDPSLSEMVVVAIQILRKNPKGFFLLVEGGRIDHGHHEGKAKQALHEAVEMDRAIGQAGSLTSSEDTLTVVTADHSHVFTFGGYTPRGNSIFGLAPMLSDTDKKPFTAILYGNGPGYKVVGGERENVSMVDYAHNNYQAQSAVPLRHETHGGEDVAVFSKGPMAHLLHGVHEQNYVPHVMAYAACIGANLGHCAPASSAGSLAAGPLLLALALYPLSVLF

[2] = target: T2, RNA-editing ligase 1, mitochondrial (Trypanosoma brucei brucei, UniProt P86926); assay: TbREL1 ligase inhibitors, dose response, biochemical, fluorescence, Trypanosoma brucei (AID 1117295); assay type: functional
T2 sequence (P86926 whole entry): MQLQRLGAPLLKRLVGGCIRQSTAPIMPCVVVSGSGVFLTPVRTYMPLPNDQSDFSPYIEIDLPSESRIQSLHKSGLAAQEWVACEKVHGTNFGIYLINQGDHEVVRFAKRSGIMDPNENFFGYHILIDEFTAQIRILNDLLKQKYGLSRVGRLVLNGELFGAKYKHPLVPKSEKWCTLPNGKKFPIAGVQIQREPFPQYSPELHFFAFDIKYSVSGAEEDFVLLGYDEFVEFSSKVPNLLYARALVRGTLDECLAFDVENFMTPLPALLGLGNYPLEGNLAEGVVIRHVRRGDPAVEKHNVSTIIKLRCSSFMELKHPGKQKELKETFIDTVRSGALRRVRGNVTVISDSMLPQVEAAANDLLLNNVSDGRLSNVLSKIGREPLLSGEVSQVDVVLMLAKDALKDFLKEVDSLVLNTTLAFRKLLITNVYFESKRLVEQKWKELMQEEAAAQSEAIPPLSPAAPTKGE

[3] = Counterscreen for antagonists of the human trace amine associated receptor 1 (hTAAR1): Fluorescence-based cell-based high throughput dose response assay to identify nonselective Ga16 antagonists.; assay type: functional
[4] = target: T3, Trace amine-associated receptor 1 (Homo sapiens, UniProt Q96RJ0); assay: Counterscreen for antagonists of the human trace amine associated receptor 1 (hTAAR1): Fluorescence-based cell-based high throughput dose response assay to identify TAAR1 Agonists.; assay type: functional
T3 sequence (Q96RJ0 whole entry): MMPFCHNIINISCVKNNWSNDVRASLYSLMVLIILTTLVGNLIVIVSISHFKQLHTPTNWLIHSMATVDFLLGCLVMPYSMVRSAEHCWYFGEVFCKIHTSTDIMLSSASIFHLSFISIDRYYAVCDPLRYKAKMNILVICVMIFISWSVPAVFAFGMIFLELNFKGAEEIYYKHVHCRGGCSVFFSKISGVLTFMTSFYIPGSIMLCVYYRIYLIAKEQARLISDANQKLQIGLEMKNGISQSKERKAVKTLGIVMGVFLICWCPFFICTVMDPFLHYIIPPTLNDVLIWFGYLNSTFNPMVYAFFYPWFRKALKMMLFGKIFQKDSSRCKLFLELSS

[5] = target: T3, Trace amine-associated receptor 1; assay: Fluorescence-based cell-based high throughput dose response assay to identify antagonists of the human trace amine associated receptor 1 (TAAR1).; assay type: functional
[6] = Counterscreen for […] of the human trace amine associated receptor 1 (TAAR1): Fluorescence-based cell-based high throughput dose response assay to identify nonselective Ga16 agonists.; assay type: functional
[7] = Counterscreen for inhibitors of Trypanosoma brucei methionyl tRNA synthetase (MetRS): Luminescence-based cell-based high throughput dose response assay to identify compounds that are cytotoxic to Jurkat human T lymphocyte cells.; assay type: functional
[8] = Late stage counterscreen for inhibitors of Trypanosoma brucei methionyl tRNA synthetase (MetRS): Luminescence-based cell-based high throughput dose response assay to identify compounds that are cytotoxic to Jurkat human T lymphocyte cells.; assay type: functional
[9] = target: T4, Methionyl-tRNA synthetase, putative (Trypanosoma brucei brucei, UniProt Q38C91); assay type: functional, Trypanosoma brucei brucei strain 927/4 GUTat10.1
T4 sequence (Q38C91 whole entry): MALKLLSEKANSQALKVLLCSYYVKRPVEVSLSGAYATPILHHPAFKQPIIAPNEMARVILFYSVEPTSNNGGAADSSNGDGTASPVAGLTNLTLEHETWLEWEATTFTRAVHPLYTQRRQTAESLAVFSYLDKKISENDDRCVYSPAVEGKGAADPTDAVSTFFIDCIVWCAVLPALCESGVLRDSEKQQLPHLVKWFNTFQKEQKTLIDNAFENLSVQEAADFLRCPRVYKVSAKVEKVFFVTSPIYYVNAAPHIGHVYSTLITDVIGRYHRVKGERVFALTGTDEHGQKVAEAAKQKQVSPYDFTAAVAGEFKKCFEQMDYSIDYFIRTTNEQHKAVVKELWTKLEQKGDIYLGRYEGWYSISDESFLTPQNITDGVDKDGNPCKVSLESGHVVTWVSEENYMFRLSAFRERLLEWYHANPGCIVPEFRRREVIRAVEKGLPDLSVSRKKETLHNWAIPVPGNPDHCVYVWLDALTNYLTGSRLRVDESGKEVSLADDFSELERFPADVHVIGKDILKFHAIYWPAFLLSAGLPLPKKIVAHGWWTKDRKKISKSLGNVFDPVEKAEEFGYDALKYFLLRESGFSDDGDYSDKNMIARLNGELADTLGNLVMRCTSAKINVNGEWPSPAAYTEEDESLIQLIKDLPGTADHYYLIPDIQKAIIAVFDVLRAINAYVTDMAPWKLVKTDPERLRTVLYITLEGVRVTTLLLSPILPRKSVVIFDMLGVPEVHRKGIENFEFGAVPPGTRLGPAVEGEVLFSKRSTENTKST

[10] = target: T4, Methionyl-tRNA synthetase, putative; assay type: functional, Trypanosoma brucei brucei strain 927/4 GUTat10.1; remark: listed apart in the source
Kallikrein-7 = Kallikrein-7 (Homo sapiens, UniProt P49862); assay: Fluorescence Intensity-based biochemical primary high throughput dose response assay to identify activators of kallikrein-7 (K7) zymogen.
[11] = EDANS-DABCYL fluorescence interference, concentration series, dose response, artefact control for kallikrein-7 zymogen activator project, biochemical, fluorescence intensity, triplicate (AID 720493)
[12] = target: Endoplasmic reticulum aminopeptidase 1 (Homo sapiens, UniProt Q9NZ08); assay: ERAP1 aminopeptidase inhibitors, dose response, biochemical, cherry-pick, set 2, plate reader (AID 743314)
[13] = HepG2 cell cytotoxicity, dose response, cytotoxicity control, plate reader, cherry-pick, antagonist series (AID 743416); assay type: functional, cell-based
[14] = LGR2 antagonists, dose response, cell-based, HEK293, CRE-luciferase reporter, cherry pick, set 2 (AID 743343); assay type: functional;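 also: transfected cells were stimulated with diluted bursicon conditioned medium after compound addition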
[15] = A549 cell cytotoxicity, dose response, cytotoxicity control, plate reader, cherry-pick, antagonist series (AID 743412); assay type: functional, cell-based
[16] = MC4R antagonists, dose response, counter-screen for LGR2 antagonist project, cell-based, plate reader, cherry pick (AID 743444); assay type: functional;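 also: transfected HEK 293 cells stimulated with alpha-MSH peptide; potency of inhibitors of the alpha-MSH evoked signal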

Chain of Kallikrein-7 (P49862 whole entry): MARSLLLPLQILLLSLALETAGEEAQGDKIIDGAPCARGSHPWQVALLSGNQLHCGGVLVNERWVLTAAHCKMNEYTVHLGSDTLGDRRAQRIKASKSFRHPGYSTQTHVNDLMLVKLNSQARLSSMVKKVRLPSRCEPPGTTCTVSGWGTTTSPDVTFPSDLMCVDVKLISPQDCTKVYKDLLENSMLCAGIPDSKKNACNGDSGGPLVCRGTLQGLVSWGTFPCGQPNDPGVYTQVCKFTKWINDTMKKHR
Chain of Endoplasmic reticulum aminopeptidase 1 (Q9NZ08 whole entry): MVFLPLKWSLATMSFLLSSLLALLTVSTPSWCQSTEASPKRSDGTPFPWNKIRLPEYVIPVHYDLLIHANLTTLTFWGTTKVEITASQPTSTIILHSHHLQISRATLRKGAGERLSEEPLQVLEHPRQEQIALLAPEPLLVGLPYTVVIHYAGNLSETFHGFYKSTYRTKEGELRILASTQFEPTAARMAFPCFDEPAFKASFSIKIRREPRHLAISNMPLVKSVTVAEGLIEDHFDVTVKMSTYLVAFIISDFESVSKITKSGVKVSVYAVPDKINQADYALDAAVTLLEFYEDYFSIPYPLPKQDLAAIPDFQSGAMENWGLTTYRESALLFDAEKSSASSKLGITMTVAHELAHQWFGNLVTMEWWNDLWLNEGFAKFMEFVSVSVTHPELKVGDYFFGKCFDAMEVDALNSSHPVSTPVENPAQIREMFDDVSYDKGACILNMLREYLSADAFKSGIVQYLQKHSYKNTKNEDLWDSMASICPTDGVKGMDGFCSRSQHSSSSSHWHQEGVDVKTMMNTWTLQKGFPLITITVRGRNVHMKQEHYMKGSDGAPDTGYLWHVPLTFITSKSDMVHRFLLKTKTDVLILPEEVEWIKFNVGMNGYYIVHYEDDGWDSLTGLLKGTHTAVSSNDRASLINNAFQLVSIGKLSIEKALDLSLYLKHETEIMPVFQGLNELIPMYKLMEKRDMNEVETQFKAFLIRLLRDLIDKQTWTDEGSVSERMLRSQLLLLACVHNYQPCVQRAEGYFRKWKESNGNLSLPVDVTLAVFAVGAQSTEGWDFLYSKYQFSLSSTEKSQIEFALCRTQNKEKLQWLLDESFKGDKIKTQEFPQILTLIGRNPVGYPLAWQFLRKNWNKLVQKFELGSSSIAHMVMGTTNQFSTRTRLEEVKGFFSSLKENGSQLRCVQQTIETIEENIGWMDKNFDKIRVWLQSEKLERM
Chain of Albumin (P02769 whole entry): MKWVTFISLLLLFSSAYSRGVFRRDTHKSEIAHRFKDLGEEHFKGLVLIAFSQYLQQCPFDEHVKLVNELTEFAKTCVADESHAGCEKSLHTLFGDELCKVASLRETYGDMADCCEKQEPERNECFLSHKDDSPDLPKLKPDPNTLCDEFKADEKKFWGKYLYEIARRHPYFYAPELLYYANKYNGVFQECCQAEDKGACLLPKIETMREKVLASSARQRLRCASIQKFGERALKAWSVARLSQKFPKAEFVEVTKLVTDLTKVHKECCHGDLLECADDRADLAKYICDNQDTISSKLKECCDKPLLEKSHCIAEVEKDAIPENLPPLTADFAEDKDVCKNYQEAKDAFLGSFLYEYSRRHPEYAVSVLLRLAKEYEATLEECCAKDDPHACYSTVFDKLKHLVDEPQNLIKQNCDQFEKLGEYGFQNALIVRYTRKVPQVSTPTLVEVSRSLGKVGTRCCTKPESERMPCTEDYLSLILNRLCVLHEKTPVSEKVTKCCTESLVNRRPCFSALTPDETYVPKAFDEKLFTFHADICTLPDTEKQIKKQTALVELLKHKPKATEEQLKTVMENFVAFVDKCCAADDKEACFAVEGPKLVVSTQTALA

SMILES: Cc1nc2ccccc2n1CC(=O)c1ccc(O)c(O)c1
- IC50 (Albumin): > 94 µM (inactive)
- IC50 [1]: 20.2 µM (active)
- IC50 [2]: > 96.6 µM (inactive)

SMILES: COC(=O)c1oc2c(c1C)C1(CCC2)SCCS1
- IC50 [3]: > 29.9 µM (inactive)
- EC50 [4]: > 29.9 µM (inactive)
- IC50 [5]: 1.09 µM (active)
- EC50 [6]: > 29.9 µM (inactive)

SMILES: COc1cccc(NC(=O)CSc2n[nH]c3c4cc(C)ccc4nc-3n2)c1
- IC50 [7]: 83.3 µM (inactive)
- IC50 [8]: > 83.3 µM (inactive)
- IC50 [9]: 0.0483 µM (active)
- IC50 [10]: 0.101 µM (active)

SMILES: CC12CC(c3ccccc3O1)C(C(=O)OCc1ccccc1)C(=O)N2 (centres undefined)
- AC50 (cells): 0.151 µM (active)

SMILES: CC1Nc2ccccc2C(=O)N1NS(C)(=O)=O (centres undefined)
- EC50 (Kallikrein-7): 10.3 µM (inactive)
- EC50 [11]: > 7.73 µM (active)

SMILES: CC(C)(C)c1cc(N2CCOCC2)n2ncc(-c3ccccc3)c2n1
- AC50 [12]: 14.2 µM (active)

SMILES: Cc1ccc2nc(-c3ccccc3)nn2c1
- AC50 [13]: > 52 µM (inactive)
- AC50 [14]: 2.48 µM (active)
- AC50 [15]: > 52 µM (inactive)
- AC50 [16]: 3.56 µM (active)
